ChEMBL document CHEMBL1201862, “PubChem BioAssay data set” (2004)
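Protocol summary: plate cells (96-well), add compound at 5 concentrations, incubate 48 h, interpolate endpoints linearly. GI50 marks 50% less growth.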 Active and inactive are the calls of the source. Cut-off read from the data, not from the text of the source: active = GI50 up to about 1.1 µM and inactive = higher.

Key:
Assay in all cases: NCI tumour cell line growth inhibition, 48 h
[1] = system: IGROV-1
[2] = system: KM12
[3] = system: MOLT-4
[4] = system: HCC 2998
[5] = system: A498
[6] = system: SF-268
[7] = system: SF-295
[8] = system: OVCAR-3
[9] = system: SNB-75
[10] = system: SF-539
[11] = system: SN12C
[12] = system: CAKI-1
[13] = system: CCRF-CEM
[14] = system: 786-0
[15] = system: UO-31
[16] = system: A549
[17] = system: NCI-H23
[18] = system: NCI-H522
[19] = system: OVCAR-4

| Structure (SMILES) | GI50 [1] | GI50 [2] | GI50 [3] | GI50 [4] | GI50 [5] | GI50 [6] | GI50 [7] | GI50 [8] | GI50 [9] | GI50 [10] | GI50 [11] | GI50 [12] | GI50 [13] | GI50 [14] | GI50 [15] | GI50 [16] | GI50 [17] | GI50 [18] | GI50 [19] |
| --- | --- | --- | --- | --- | --- | --- | --- | --- | --- | --- | --- | --- | --- | --- | --- | --- | --- | --- | --- |
| ClC(Cl)[Si]12OCCN(CCO1)CCO2 | > 100 µM (inactive) | > 100 µM (inactive) | > 100 µM (inactive) | > 100 µM (inactive) | > 100 µM (inactive) | > 100 µM (inactive) | > 100 µM (inactive) | > 100 µM (inactive) | > 100 µM (inactive) | > 100 µM (inactive) | > 100 µM (inactive) | > 100 µM (inactive) | > 100 µM (inactive) | > 100 µM (inactive) | > 100 µM (inactive) | > 100 µM (inactive) | > 100 µM (inactive) | > 100 µM (inactive) | – |
| Cc1cc2ncn(-c3nc4ccccc4nc3C(C#N)S(C)(=O)=O)c2cc1C (stereo not drawn) | > 100 µM (inactive) | > 100 µM (inactive) | > 100 µM (inactive) | > 100 µM (inactive) | 19.7 µM (inactive) | > 100 µM (inactive) | – | > 100 µM (inactive) | > 100 µM (inactive) | > 100 µM (inactive) | > 100 µM (inactive) | > 100 µM (inactive) | > 100 µM (inactive) | > 100 µM (inactive) | > 100 µM (inactive) | > 100 µM (inactive) | > 100 µM (inactive) | > 100 µM (inactive) | > 100 µM (inactive) |
| CC(=O)OC1c2ccccc2CC2(OC(C)=O)c3ccccc3C12 (stereo not drawn) | > 100 µM (inactive) | > 100 µM (inactive) | > 100 µM (inactive) | > 100 µM (inactive) | > 100 µM (inactive) | > 100 µM (inactive) | > 100 µM (inactive) | > 100 µM (inactive) | > 100 µM (inactive) | > 100 µM (inactive) | > 100 µM (inactive) | > 100 µM (inactive) | > 100 µM (inactive) | > 100 µM (inactive) | > 100 µM (inactive) | > 100 µM (inactive) | > 100 µM (inactive) | – | > 100 µM (inactive) |
| CCN(C1=CC(=O)NC2CCCCN12)c1ccccc1 (stereo not drawn) | > 100 µM (inactive) | > 100 µM (inactive) | > 100 µM (inactive) | > 100 µM (inactive) | > 100 µM (inactive) | > 100 µM (inactive) | > 100 µM (inactive) | > 100 µM (inactive) | > 100 µM (inactive) | > 100 µM (inactive) | > 100 µM (inactive) | > 100 µM (inactive) | > 100 µM (inactive) | > 100 µM (inactive) | > 10 µM (inactive) | > 100 µM (inactive) | > 100 µM (inactive) | – | > 100 µM (inactive) |
| COc1c2c3c4c(c(OC)c(=O)c5c(O)cc(OC)c(c6c(OC)cc(O)c(c1=O)c63)c54)C(C(C)O)C2C(C)=O (stereo not drawn) | 0.445 µM (active) | 0.431 µM (active) | 0.279 µM (active) | 0.481 µM (active) | 0.628 µM (active) | 0.492 µM (active) | 0.256 µM (active) | 0.338 µM (active) | 0.256 µM (active) | 0.296 µM (active) | 0.485 µM (active) | 0.279 µM (active) | 0.269 µM (active) | 0.61 µM (active) | 0.325 µM (active) | 0.353 µM (active) | 0.331 µM (active) | 0.171 µM (active) | 0.46 µM (active) |
| CC1=C(C(=O)Nc2c(C)cccc2C)C(c2ccccc2Cl)C(C(=O)Nc2c(C)cccc2C)=C(C)N1 | > 100 µM (inactive) | > 100 µM (inactive) | > 100 µM (inactive) | > 100 µM (inactive) | > 100 µM (inactive) | > 100 µM (inactive) | > 100 µM (inactive) | > 100 µM (inactive) | 94.8 µM (inactive) | > 100 µM (inactive) | > 100 µM (inactive) | > 100 µM (inactive) | > 100 µM (inactive) | > 100 µM (inactive) | > 100 µM (inactive) | > 100 µM (inactive) | > 100 µM (inactive) | > 100 µM (inactive) | > 100 µM (inactive) |
| O=C(N=C1N(c2ccccc2)C(=O)C(=O)N1c1ccccc1)c1ccccc1 | 10.5 µM (inactive) | 17.3 µM (inactive) | 15.5 µM (inactive) | 8.53 µM (inactive) | 18.2 µM (inactive) | 15.1 µM (inactive) | 11.3 µM (inactive) | – | 11.3 µM (inactive) | 12.6 µM (inactive) | 10.6 µM (inactive) | 13.5 µM (inactive) | 24.8 µM (inactive) | 3.68 µM (inactive) | 14.5 µM (inactive) | 5.48 µM (inactive) | 13.6 µM (inactive) | 1.66 µM (inactive) | 2.95 µM (inactive) |
